Experiment [1] deals with cancer cells. Description: Cell line profiling with a ferroptosis-inducing agent with and without a rescue agent (CellTiter-Glo). It counts as cell-based, human. As for the experimental part:
Cell viability assays are performed by seeding 1,000 cells per well (30 μl volume) in opaque white 384-well plates (Corning). Cells are allowed to adhere for 24 h, after which they are exposed to compounds for 72 hours. DMSO stock solutions of compounds are added to cells using a CyBio Well Vario liquid dispenser (Analytik Jena AG). Cellular ATP levels are measured using CellTiter-Glo (Promega) as a surrogate for viability. Rescue assays are performed using rescue agents-ferrostatin-1 (fer-1, 1.5 μM), liproxstatin-1 (lip-1, 1 μM), deferoxamine (DFO, 50 μM), and other ferroptosis inhibitors added to cells at the time of addition to assay plates. Dose-response curves for BSO and RSL3 are shown in FIG. 4 with and without anti-ferroptosis rescue agent treatment (indicated as no treatment or +1.5 μM fer-1).
In general terms: In ATP-based viability assays light output follows the ATP content of the culture.

The test system of experiment [2] is solid tumor animal model. Description: Microdosing tumors with ferroptosis-inducing agents (implantable drug delivery system, cleaved caspase-3 / H&E staining). It counts as in vivo, C57BL6/J mice. To be noted: local sustained administration, 1-10 μM at the tumor site, 24 hours. How it is done: For the allograft study, cancer cell line-derived tumor cells were injected into the flanks of male C57BL6/J mice. Assays were initiated when the tumor diameter was approximately 6-7 mm.
Microdose drug delivery was performed for the assay described herein. The compounds in Table 22 were packed into device reservoirs using a tapered metal needle. Reservoirs were loaded for initial release of liproxstatin-1 (where included) followed by a 4-6 h delayed release of ferroptosis inducers. Devices were prepared for dose administration into mouse tumors. Devices delivered the ferroptosis inducing agent for 24-72 hours in the tissue. The tumor was then excised, and the tissue was snap frozen with liquid nitrogen. Tissue was sectioned using a standard cryotome, and tissue slices of 20 μm in thickness were collected from each reservoir for analysis by immunoassays, transcriptomics, and metabolomic assays.
A drug delivery system was applied to a: solid tumor animal model. Animals were administered (1) L-BSO or (2) L-BSO+liproxstatin-1 (lip-1) as a ferroptosis-rescue agent. Drugs were loaded into an implantable drug delivery system to achieve concentrations of 1-10 μM for both BSO+lip-1 at the tumor site. After 24 hours, tumors were removed and stained for cleaved caspase-3 to indicate cell death in the tumor (FIG. 2A). […] Therefore, ferroptosis can be induced by both local and systemic administration of BSO.
A drug delivery system was applied to a: solid tumor animal model. Animals were administered (1) ML-210 or (2) ML-210+liproxstatin-1 (lip-1), as a ferroptosis rescue agent. Drugs were loaded into an implantable drug delivery system to achieve concentrations of 1-10 μM for both ML-210 and ML-210+liproxstatin-1 (lip-1) at the tumor site. After 24 hours, tumors were removed and stained for cleaved caspase-3.
To achieve therapeutic doses of RSL3 in vivo, a drug delivery system was applied to a: solid tumor animal model. Animals were administered (1) RSL3 or (2) RSL3+liproxstatin (lip-1) as a ferroptosis rescue agent. Drugs were loaded into an implantable drug delivery system to achieve concentrations of 1-10 μM for both RSL-3 and RSL3 and lip-1 co-administration at the tumor site. After 24 hours of sustained administration, tumors were removed and stained for cleaved caspase-3 (FIG. 5A). Dashed lines indicate region of drug exposure.

`COC(=O)c1ccc([C@H]2c3[nH]c4ccccc4c3C[C@H](C(=O)OC)N2C(=O)CCl)cc1` [RSL3, (1S,3R)-RSL3]: the “fractional viability of cancer cells with fer-1 co-treatment” value in experiment [1] (+1.5 μM fer-1) was “reduction in the fractional viability of cancer cells”. Also, the ferroptosis induction result in experiment [1] (dose-response, with and without 1.5 μM fer-1) is reported as “robust inducer of ferroptosis”. Moreover, in experiment [2], the “tumor response (cleaved caspase-3 staining: cell death, white blood cell recruitment)” value is “White blood cell recruitment and cell death were prominent”.
